Experimental data reported in patent US20260176300A1, “N-ARYLPYRAZOLE NOD2 AGONISTS AS PROMOTERS OF IMMUNE CHECKPOINT INHIBITOR THERAPY” (THE SCRIPPS RESEARCH INSTITUTE, priority 2022, published 2026).

Experiments:
[1] = tested on: B16-F10 subcutaneous tumors; assay: B16-F10 tumor growth assay with anti-PD-L1 co-treatment; assay type: in vivo, mice; details: wild-type C57BL/6 mice, 100 μg α-PD-L1 and 100 μg compound i.p. every other day
Protocol: FIG. 3(A-H). NOD2 agonist TT030 activates cytokine production in vitro and improves immune checkpoint inhibitor treatment of tumor growth in vivo. A-D, Measurements of secreted cytokine levels from human peripheral mononuclear blood cells (PMBCs) treated with the indicated compounds for 24 h without or with lipopolysaccharide (LPS). E, Structures of TT030 and its enantiomer (TT030-ent). F, Activation of NOD1- and NOD2-expressing HEK-293T cells with the indicated compounds. C12-iE-DAP is a lipophilic version of the NOD1 agonist, iE-DAP. G, Growth profiles of B16-F10 subcutaneous tumors in wild-type C57BL/6 mice treated with 100 μg α-PD-L1 and 100 μg of the indicated compounds every other day starting at Day 7. H, Growth profiles of B16-F10 subcutaneous tumors in wild-type or Nod2^−/− C57BL/6 mice treated with 100 μg α-PD-L1 and 100 μg TT030 every other day starting at Day 7. Cytokine secretion assays and NOD activation assays were analyzed using a one-way ANOVA with Dunnett's multiple comparisons test compared to the DMSO control. Longitudinal tumor growth assays were analyzed using linear mixed-effects model analysis on the log transformed data. ns=not significant, *P<0.05, **P<0.01, ***P<0.001, ****P<0.0001.
Animals. Specific pathogen-free, eight-week old male C57BL/6J (B6, 000664) and B6.129S1—Nod2^tm1Flv/J (Nod2^−/−, 005763 from Flavell Lab, Yale School of Medicine) were obtained from The Jackson Laboratory. Animals were housed in autoclaved caging with SaniChip bedding and enrichment for nest building on a 12-hour light/dark cycle. Animals were provided gamma-irradiated chow (LabDiet, 5053) and sterile drinking water ad libitum. Animal care and experiments were conducted in accordance with NIH guidelines and approved by the Institutional Animal Care and Use Committee at Scripps Research (Protocol AUP-21-095).
Tumor growth assay. B16-F10 cells were subcultured on the day prior to harvesting for tumor inoculation. On the day of injection, cells were harvested using TrypLE Express, washed and resuspended in cold PBS, and counted with a hemocytometer. Cells were then resuspended at 2×10^6 cells mL^−1 in PBS and mixed 1:1 with Matrigel matrix (Corning; growth factor reduced, 356231). Cell suspensions were kept on ice prior to injection. Animals were anesthetized using 3% isoflurane, and their right flank was shaved with hair clippers. Animals were then subcutaneously injected with 100 μL of the cell suspension on their mid-right flank (1×10^5 cells per injection). Once tumors were established at roughly 25-100 mm^3, tumor volume was measured every other day. Digital calipers were used to measure the length and width of each tumor, and tumor volume was calculated as length×[…], where width was the smaller of the two measurements. […]

NOD2 = target: T1, NOD2 (Homo sapiens, UniProt Q9HC29); assay: NOD2-HEK-Blue NF-κB reporter cell activation assay (NOD2-expressing HEK-293T cells); assay type: cell-based; details: for EC50: calculated, three-parameter dose-response nonlinear regression, read-out: pEC50 (μM), dose-dependent activation of NOD2-expressing HEK-293T cells (converted); for Potency in structure-activity comparison: relative to TT007, FIG. 2B, 2D, 2F, 6E
T1 construct: host or cells: HEK-293T-derived HEK-Blue NF-kB/SEAP reporter cells
Text: FIG. 1(A-F). Virtual screening for small molecule NOD2 agonists. A, Docked structure of muramyl dipeptide (MDP) in the leucine-rich repeat (LRR) domain of rabbit NOD2 (pdb 5IRM). […] B, Results of virtual docking approach with reported chemical structures related to MDP. C, Workflow of virtual screening in which a library was generated using carboxylic acids appended to the L-Val-D-Glu dipeptide and then docked to the NOD2 LRR domain. D, Desmuramyl MDP (dMDP) structures resulting from the virtual screen that were synthesized for further screening. Chemicals shown as a pure enantiomer were synthesized as a racemic mixture. E, Activation of NOD2-expressing HEK-293T cells treated for 16 h with 10 µM of the indicated compound using a colorimetric assay. F, Dose-dependent activation of NOD2-expressing HEK-293T cells using the indicated compounds. Numbers in parentheses represent calculated negative log of the half maximal effective concentration (pEC50) values. NOD activation assays were analyzed using a one-way ANOVA with Dunnett's multiple comparisons test compared to the DMSO control. pEC50 values were derived by a three-parameter dose-response nonlinear regression. ****P<0.0001.
FIG. 2(A-G). Structure-activity relationship studies of 3,5-dimethyl-N-arylpyrazole NOD2 agonists. A, Structures of 3,5-dimethyl-N-arylpyrazole structures synthesized for SAR studies. B-F, Dose-dependent activation of NOD2-expressing HEK-293T cells using the indicated compounds grouped by similar structural perturbations. Numbers in parentheses represent calculated pEC50 values. G, Graph of calculated pEC50 values vs. calculated partition coefficient (clogP). Dotted lines show equivalent lipophilic ligand efficiency (LLE) values. Red arrow indicates optimization of the TT007 scaffold to TT030. pEC50 values were derived by a three-parameter dose-response nonlinear regression.
Cell culture. The following cell lines were used and sourced as follows: HEK-Blue NOD2 (InvivoGen, hkb-hnod2), HEK-Blue NOD1 (InvivoGen, hkb-nod1), HEK-Blue Null2 (hkb-null2), and B16-F10 (ATCC CRL-6475). All cell lines were cultured at 37° C. in 5% CO2 in DMEM (ThermoFisher, 11995065) supplemented with 10% fetal bovine serum (FBS), 100 U mL-1 penicillin, and 100 μg mL-1 streptomycin. Cells were maintained at no greater than 70% confluency and subcultured using TrypLE Express. Cell lines were routinely cultured without antibiotics to ensure no bacterial infection and tested for mycoplasma using a Universal Mycoplasma Detection Kit (ATCC 30-1012K). Primary human peripheral mononuclear blood cells (PBMCs) were cultured at 37° C. in 5% CO2 in RPMI 1640 (ThermoFisher, 61870143) supplemented with 10% FBS. All experimental work using human samples was reviewed and approved by the Scripps Research Institutional Review Board (Protocol IRB-21-7816NOD2).
Reporter cell line activation assay. Approximately 24 h before the assay, culture medium for each of the HEK-Blue reporter cell lines was replaced with a 1:1 mixture of DMEM supplemented with 10% FBS and OptiMEM. On the day of the assay, single cell suspensions (150,000 cells/mL) were produced in HEK-Blue detection medium (InvivoGen, hb-det2). Cells were aliquoted at 200 μL per well of a 96-well plate containing 0.2 μL of a 1000× stock of each test compound in DMSO. Cells were then incubated at 37° C. in 5% CO2 for 8-10 h. To measure activity, wells were then gently pipetted up and down to mix the conditioned medium, and absorbance from the colorimetric product of the secreted alkaline phosphatase was measured at 630 nm. In some assays, cells were stimulated for 16 h with compounds as described above in complete DMEM. Then, 20 μL of the conditioned medium was mixed with 180 μL QUANTI-Blue solution (InvivoGen, rep-qbs) and incubated for 2-4 h at 37° C. Activity was then measured by absorbance as described above.

T1 sequence (Q9HC29 whole entry): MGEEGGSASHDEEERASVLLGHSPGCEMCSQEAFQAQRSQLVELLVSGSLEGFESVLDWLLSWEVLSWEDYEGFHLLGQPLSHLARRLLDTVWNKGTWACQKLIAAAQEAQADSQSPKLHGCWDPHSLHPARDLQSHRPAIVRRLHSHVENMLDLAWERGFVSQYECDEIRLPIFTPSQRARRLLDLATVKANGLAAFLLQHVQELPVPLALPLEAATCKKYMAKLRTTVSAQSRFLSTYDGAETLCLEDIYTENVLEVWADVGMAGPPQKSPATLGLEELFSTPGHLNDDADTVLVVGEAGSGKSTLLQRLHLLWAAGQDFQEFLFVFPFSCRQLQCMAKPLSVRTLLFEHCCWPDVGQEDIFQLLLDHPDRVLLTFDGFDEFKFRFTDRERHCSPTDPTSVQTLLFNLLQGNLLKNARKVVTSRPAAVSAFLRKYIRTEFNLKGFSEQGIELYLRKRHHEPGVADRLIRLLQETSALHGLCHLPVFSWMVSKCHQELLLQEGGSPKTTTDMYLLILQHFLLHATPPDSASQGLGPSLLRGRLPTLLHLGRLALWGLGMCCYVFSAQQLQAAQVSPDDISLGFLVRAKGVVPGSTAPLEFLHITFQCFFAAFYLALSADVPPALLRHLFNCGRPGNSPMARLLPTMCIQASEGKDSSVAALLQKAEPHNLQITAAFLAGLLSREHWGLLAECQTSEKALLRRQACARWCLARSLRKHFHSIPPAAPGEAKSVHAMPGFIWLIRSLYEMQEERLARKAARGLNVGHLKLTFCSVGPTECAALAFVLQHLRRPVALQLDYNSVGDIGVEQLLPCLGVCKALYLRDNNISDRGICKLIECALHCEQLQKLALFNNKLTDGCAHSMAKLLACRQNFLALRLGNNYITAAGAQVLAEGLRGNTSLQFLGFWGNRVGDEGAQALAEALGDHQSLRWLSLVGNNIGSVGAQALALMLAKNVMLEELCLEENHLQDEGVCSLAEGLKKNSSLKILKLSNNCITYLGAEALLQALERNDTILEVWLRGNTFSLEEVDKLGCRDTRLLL

Structure (SMILES): CCOC(=O)CC[C@H](NC(=O)[C@H](NC(=O)c1c(C)nn(-c2cc[nH]c(=O)c2)c1C)C(C)C)C(=O)OCC [TT030-ent, Diethyl (3,5-dimethyl-1-(2-oxo-1,2-dihydropyridin-4-yl)-1H-pyrazole-4-carbonyl)-D-valyl-L-glutamate]
- B16 tumor growth over time [1]: not
- NOD2 activity in the HEK-Blue in vitro assay (NOD2; FIG. 3F): NOD2-inactive

Structure (SMILES): CCOC(=O)CC[C@@H](NC(=O)[C@@H](NC(=O)c1c(C)nn(-c2cccnc2)c1C)C(C)C)C(=O)OCC [TT033, Diethyl (3,5-dimethyl-1-(pyridin-3-yl)-1H-pyrazole-4-carbonyl)-L-valyl-D-glutamate]
- EC50 (NOD2): 2.51 µM

Structure (SMILES): CCOC(=O)CC[C@@H](NC(=O)[C@@H](NC(=O)c1cnn(-c2ccc(F)cc2)c1C)C(C)C)C(=O)OCC [TT010, Diethyl (1-(4-fluorophenyl)-5-methyl-1H-pyrazole-4-carbonyl)-L-valyl-D-glutamate]
- EC50 (NOD2): 39.8 µM
- Potency in structure-activity comparison (NOD2): reduced potency by up to two orders of magnitude

Structure (SMILES): CCOC(=O)CC[C@@H](NC(=O)[C@@H](NC(=O)c1c(C)nn(-c2ccc(N)nc2)c1C)C(C)C)C(=O)OCC [TT026, Diethyl (1-(6-aminopyridin-3-yl)-3,5-dimethyl-1H-pyrazole-4-carbonyl)-L-valyl-D-glutamate]
- EC50 (NOD2): 0.501 µM

Structure (SMILES): CCOC(=O)CC[C@@H](NC(=O)[C@H](C(C)C)N(C)C(=O)c1c(C)nn(-c2ccccc2)c1C)C(=O)OCC [TT019, Diethyl N-(3,5-dimethyl-1-phenyl-1H-pyrazole-4-carbonyl)-N-methyl-L-valyl-D-glutamate]
- Activity after N-methylation on Val (NOD2; TT018 vs. TT019, TT010 vs. TT020, TT011 vs. TT021, FIG. 2C): abolished the activity

Structure (SMILES): CCOC(=O)CC[C@@H](NC(=O)[C@@H](NC(=O)c1cn(-c2ccccc2)nc1-c1cccc(C)c1)C(C)C)C(=O)OCC [TT008, Diethyl (1-phenyl-3-(m-tolyl)-1H-pyrazole-4-carbonyl)-L-valyl-D-glutamate]
- Activation of NOD2-expressing HEK-293T cells, colorimetric assay (NOD2; 10 µM, 16 h (FIG. 1E)): inactive

Structure (SMILES): CCOC(=O)CC[C@@H](NC(=O)[C@@H](NC(=O)C1(Cc2ccc(F)cc2)CCCC1)C(C)C)C(=O)OCC [TT003, Diethyl (1-(4-fluorobenzyl)cyclopentane-1-carbonyl)-L-valyl-D-glutamate]
- EC50 (NOD2): 0.0501 µM

Structure (SMILES): C#CCCC1(CC(=O)N[C@H](C(=O)N[C@H](CCC(=O)OCC)C(=O)OCC)C(C)C)N=N1 [x-alk-VE]
- EC50 (NOD2): 1.58 µM

Structure (SMILES): CCOC(=O)CC[C@@H](NC(=O)[C@@H](NC(=O)/C=C/c1ccc(F)cc1)C(C)C)C(=O)OCC [TT002, Diethyl ((E)-3-(4-fluorophenyl)acryloyl)-L-valyl-D-glutamate]
- NOD2 activation, result in words in the pEC50 column (NOD2; Table 1): Active

Structure (SMILES): CCOC(=O)CC[C@@H](NC(=O)[C@@H](NC(=O)c1cnn(-c2ccncc2)c1C)C(C)C)C(=O)OCC [TT016, Diethyl (5-methyl-1-(pyridin-4-yl)-1H-pyrazole-4-carbonyl)-L-valyl-D-glutamate]
- EC50 (NOD2): 79.4 µM

Structure (SMILES): CCOC(=O)CC[C@@H](NC(=O)[C@@H](NC(=O)c1c(C)nn(-c2ccc(OC)cc2)c1C)C(C)C)C(=O)OCC [TT023, Diethyl (1-(4-methoxyphenyl)-3,5-dimethyl-1H-pyrazole-4-carbonyl)-L-valyl-D-glutamate]
- EC50 (NOD2): 2 µM
- Potency in structure-activity comparison (NOD2): did not yield compounds with appreciable differences in potency
